# Results published in patent publication US20100267561A1, “HERBICIDAL PYRIDAZINONE DERIVATIVES” (priority 2007, published 2010).
# Tests used:
# Assay type in all cases: in vivo
# [1] = system: Russian thistle (Salsola iberica); experiment: Test B pre-/postemergence plant response; conditions: Preemergence
# Summary of the method: (§1)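 Visual scoring from 0 (no effect) to 100 (complete control) against untreated controls was done 13 to 15 days after greenhouse treatment. Chemicals were formulated in a surfactant-containing non-phytotoxic solvent and applied to soil preemergence or to 1- to 4-leaf (2-18 cm) plants postemergence.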
# [2] = system: bermudagrass (Cynodon dactylon); experiment: Test B pre-/postemergence plant response; conditions: for Bermudagrass plant response rating: 8 g ai/ha
# Summary of the method: as §1
# [3] = system: cocklebur (Xanthium strumarium); experiment: Test B pre-/postemergence plant response; conditions: for Cocklebur plant response rating: 8 g ai/ha
# Summary of the method: as §1
# [4] = system: common (oilseed) sunflower (Helianthus annuus); experiment: Test B pre-/postemergence plant response; conditions: Preemergence
# Summary of the method: as §1
# [5] = system: common ragweed (Ambrosia elation); experiment: Test B pre-/postemergence plant response; conditions: for Ragweed plant response rating: 8 g ai/ha
# Summary of the method: as §1
# corn (Zea mays) = experiment: Test B pre-/postemergence plant response; conditions: for Corn plant response rating: 8 g ai/ha
# Summary of the method: as §1
# [6] = system: goosegrass (Eleusine indica); experiment: Test B pre-/postemergence plant response; conditions: for Goosegrass plant response rating: 8 g ai/ha
# Summary of the method: as §1
# kochia (Kochia scoparia) = experiment: Test B pre-/postemergence plant response; conditions: for Kochia plant response rating: 8 g ai/ha
# Summary of the method: as §1
# [7] = system: lambsquarters (Chenopodium album); experiment: Test B pre-/postemergence plant response; conditions: for Lambsquarters plant response rating: 8 g ai/ha
# Summary of the method: as §1
# [8] = system: large crabgrass (Digitaria sanguinalis); experiment: Test B pre-/postemergence plant response; conditions: for Crabgrass, Large plant response rating: 8 g ai/ha
# Summary of the method: as §1
# soybean (Glycine max) = experiment: Test B pre-/postemergence plant response; conditions: for Soybean plant response rating: 8 g ai/ha
# Summary of the method: as §1
# [9] = system: surinam grass (Brachiaria decumbens); experiment: Test B pre-/postemergence plant response; conditions: for Surinam Grass plant response rating: 8 g ai/ha
# Summary of the method: as §1
# [10] = system: wheat (Triticum aestivum); experiment: Test B pre-/postemergence plant response; conditions: for Wheat plant response rating: 8 g ai/ha
# Summary of the method: as §1
# [11] = system: ducksalad (Heteranthera limosa); experiment: Test B flooded paddy test plant response
# Summary of the method: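 Paddy-water application to 2-leaf plants in pots held under 3 cm of flooding; response is a 0–100 visual control rating against controls after 13 to 15 days, and a dash marks a missing result.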
# [12] = 16 g ai/ha, scale 0 to 100 (0 no effect, 100 complete control)
# [13] = 31 g ai/ha, 0 to 100 scale, 0 no effect, 100 complete control
# [14] = Postemergence, 16 g ai/ha, scale 0 to 100
# [15] = Postemergence, 31 g ai/ha, scale 0 to 100, 0 no effect, 100 complete control
# [16] = Postemergence, 62 g ai/ha, scale 0 to 100, 0 no effect, 100 complete control
# [17] = Preemergence, 16 g ai/ha, scale 0 to 100 (0 no effect, 100 complete control)
# [18] = Preemergence, 31 g ai/ha, 0 to 100 scale, 0 no effect, 100 complete control
# [19] = Preemergence, 62 g ai/ha, scale 0 to 100
compound,measurement,setting,value
Cc1cc(-c2ccc(Cl)cc2)nn1-c1c(OC(=O)c2ccccc2Cl)cnn(C)c1=O [Compound 38],"Plant response rating, Russian Thistle",[1]; [12],0
same,"Plant response rating, Russian Thistle",[1]; [13],0
same,"Plant response rating, Russian Thistle","[1]; 62 g ai/ha, scale 0 to 100",0
same,Russian Thistle plant response rating,"[1]; 8 g ai/ha, scale 0 to 100",0
same,Bermudagrass plant response rating,"[2]; postemergence, 0-100 scale",40
same,"Plant response rating, Bermudagrass",[2]; [14],85
same,"Plant response rating, Bermudagrass",[2]; [15],100
same,"Plant response rating, Bermudagrass",[2]; [16],100
same,Bermudagrass plant response rating,"[2]; Preemergence, scale 0 to 100 (0 no effect, 100 complete control)",60
same,"Plant response rating, Bermudagrass",[2]; [17],100
same,"Plant response rating, Bermudagrass",[2]; [18],100
same,"Plant response rating, Bermudagrass",[2]; [19],100
same,Cocklebur plant response rating,"[3]; postemergence, 0-100 scale",0
same,"Plant response rating, Cocklebur",[3]; [14],0
same,"Plant response rating, Cocklebur",[3]; [15],0
same,"Plant response rating, Cocklebur",[3]; [16],0
same,"Plant response rating, Cocklebur",[3]; [17],0
same,"Plant response rating, Cocklebur",[3]; [18],0
same,"Plant response rating, Cocklebur",[3]; [19],0
same,Cocklebur plant response rating,"[3]; Preemergence, scale 0 to 100",0
same,"Plant response rating, Sunflower",[4]; [12],0
same,"Plant response rating, Sunflower",[4]; [13],0
same,"Plant response rating, Sunflower","[4]; 62 g ai/ha, scale 0 to 100",0
same,Sunflower plant response rating,"[4]; 8 g ai/ha, scale 0 to 100",0
same,Ragweed plant response rating,"[5]; postemergence, 0-100 scale",0
same,"Plant response rating, Ragweed",[5]; [14],0
same,"Plant response rating, Ragweed",[5]; [15],0
same,"Plant response rating, Ragweed",[5]; [16],0
same,"Plant response rating, Ragweed",[5]; [17],0
same,"Plant response rating, Ragweed",[5]; [18],0
same,"Plant response rating, Ragweed",[5]; [19],0
same,Ragweed plant response rating,"[5]; Preemergence, scale 0 to 100",0
same,Corn plant response rating,"corn (Zea mays); postemergence, 0-100 scale",90
same,"Plant response rating, Corn",corn (Zea mays); [14],95
same,"Plant response rating, Corn",corn (Zea mays); [15],100
same,"Plant response rating, Corn",corn (Zea mays); [16],100
same,"Plant response rating, Corn",corn (Zea mays); [17],50
same,"Plant response rating, Corn",corn (Zea mays); [18],75
same,"Plant response rating, Corn",corn (Zea mays); [19],95
same,Corn plant response rating,"corn (Zea mays); Preemergence, scale 0 to 100",45
same,Goosegrass plant response rating,"[6]; postemergence, 0-100 scale",100
same,"Plant response rating, Goosegrass",[6]; [14],100
same,"Plant response rating, Goosegrass",[6]; [15],100
same,"Plant response rating, Goosegrass",[6]; [16],100
same,"Plant response rating, Goosegrass",[6]; [17],85
same,"Plant response rating, Goosegrass",[6]; [18],95
same,"Plant response rating, Goosegrass",[6]; [19],95
same,Goosegrass plant response rating,"[6]; Preemergence, scale 0 to 100",45
same,Kochia plant response rating,"kochia (Kochia scoparia); postemergence, 0-100 scale",0
same,"Plant response rating, Kochia",kochia (Kochia scoparia); [14],0
same,"Plant response rating, Kochia",kochia (Kochia scoparia); [15],0
same,"Plant response rating, Kochia",kochia (Kochia scoparia); [16],0
same,"Plant response rating, Kochia",kochia (Kochia scoparia); [17],0
same,Kochia plant response rating,"kochia (Kochia scoparia); Preemergence, scale 0 to 100",0
same,Lambsquarters plant response rating,"[7]; postemergence, 0-100 scale",0
same,"Plant response rating, Lambsquarters",[7]; [14],0
same,"Plant response rating, Lambsquarters",[7]; [15],0
same,"Plant response rating, Lambsquarters",[7]; [16],0
same,"Plant response rating, Lambsquarters",[7]; [17],0
same,"Plant response rating, Lambsquarters",[7]; [18],0
same,"Plant response rating, Lambsquarters",[7]; [19],0
same,Lambsquarters plant response rating,"[7]; Preemergence, scale 0 to 100",0
same,"Crabgrass, Large plant response rating","[8]; postemergence, 0-100 scale",70
same,"Plant response rating, Crabgrass, Large",[8]; [14],70
same,"Plant response rating, Crabgrass, Large",[8]; [15],90
same,"Plant response rating, Crabgrass, Large",[8]; [16],100
same,"Plant response rating, Crabgrass, Large",[8]; [17],98
same,"Plant response rating, Crabgrass, Large",[8]; [18],100
same,"Plant response rating, Crabgrass, Large",[8]; [19],100
same,"Crabgrass, Large plant response rating","[8]; Preemergence, scale 0 to 100",45
same,Soybean plant response rating,"soybean (Glycine max); postemergence, 0-100 scale",0
same,"Plant response rating, Soybean",soybean (Glycine max); [14],0
same,"Plant response rating, Soybean",soybean (Glycine max); [16],0
same,"Plant response rating, Soybean",soybean (Glycine max); [17],0
same,"Plant response rating, Soybean",soybean (Glycine max); [18],0
same,"Plant response rating, Soybean",soybean (Glycine max); [19],0
same,Soybean plant response rating,"soybean (Glycine max); Preemergence, scale 0 to 100",0
same,Surinam Grass plant response rating,"[9]; postemergence, 0-100 scale",90
same,"Plant response rating, Surinam Grass",[9]; [14],90
same,"Plant response rating, Surinam Grass",[9]; [16],100
same,"Plant response rating, Surinam Grass",[9]; [17],90
same,"Plant response rating, Surinam Grass",[9]; [18],100
same,"Plant response rating, Surinam Grass",[9]; [19],100
same,Surinam Grass plant response rating,"[9]; Preemergence, scale 0 to 100",90
same,Wheat plant response rating,"[10]; postemergence, 0-100 scale",10
same,"Plant response rating, Wheat",[10]; [14],45
same,"Plant response rating, Wheat",[10]; [16],95
same,"Plant response rating, Wheat",[10]; [17],0
same,"Plant response rating, Wheat",[10]; [18],0
same,"Plant response rating, Wheat",[10]; [19],90
same,Wheat plant response rating,"[10]; Preemergence, scale 0 to 100",0
same,"Plant response rating, Ducksalad","[11]; Flood (flooded paddy test), 125 g ai/ha, scale 0 to 100, 0 no effect, 100 complete control",30
same,"Plant response rating, Ducksalad","[11]; Flood (flooded paddy test), 250 g ai/ha, scale 0 to 100, 0 no effect, 100 complete control",40
same,"Plant response rating, Ducksalad","[11]; Flood, 31 g ai/ha, scale 0 to 100",40
